Publication PMC8143069 (Cell Discovery, 2021)
“Also recorded” adds a separate entry of the source. Counter-ions that a name gives are not always drawn. Like-named read-outs stand apart in the source and are kept apart here. Where no end group is shown, it is not given here. [ ]: non-standard residue; d: D form. Lys(Me2) = CN(C)CCCC[C@H](N)C(=O)O

Columns and labels:
human recombinant LSD1 [1] = type: biochemical
[2] = tested on: ACE2 (pan-methylation lysine), Caco-2 cells; type: cell-based, human
Caco-2 cells [3] = tested on: Caco-2 cells
[4] = tested on: SARS-CoV-2-infected Caco-2 cells; type: cell-based, human / SARS-CoV-2
[5] = tested on: ACE2-IMPα3 colocalization, SARS-CoV-2-infected Caco-2 cells; type: cell-based, human
[6] = tested on: ACE2-SARS-CoV-2 spike protein interaction, Caco-2 cells; type: cell-based, human / SARS-CoV-2
[7] = tested on: SARS-CoV-2-infected Caco-2 cells; type: cell-based, human
SARS-CoV-2 [8] = type: cell-based
Caco-2 cells [9] = tested on: Caco-2 cells; remark: listed apart in the source
LSD1 = details: cited from earlier work
[10] = tested on: SARS-CoV-2 spike protein at Caco-2 cell surface; type: cell-based
[11] = tested on: SARS-CoV-2-infected Caco-2 cells; type: cell-based, human; remark: listed apart in the source
SARS-CoV-2 [12] = type: cell-based; remark: listed apart in the source
[13] = tested on: SARS-CoV-2-S-driven entry, Caco-2 cells; details: cited from earlier work
COVID-19 = details: cited from earlier work
[14] = tested on: T cells in human breast cancer; details: cited from earlier work
[15] = tested on: nuclear LSD1/CoREST complex; details: cited from earlier work
human recombinant LSD1 [16] = assay: LSD1 demethylation assay with di-methylated ACE2 peptides as substrates; type: biochemical; details: for Demethylation of NLS peptides by LSD1 (rank order): LSD1 fluorimetric kit, background subtracted, one-way ANOVA P < 0.0001 (Fig. 4d)
Caco-2 cells [17] = type: physicochemical, human; details: FAM5-tagged peptide, single treatment, Caco-2 culture, over 96 h, fluorescence imaging
ACE2, Caco-2 cells = type: cell-based, human; details: Caco-2, FAM5-tagged NACE2i, single treatment, after 8 h and up to 96 h; P < 0.0001 (Fig. 5b)
SARS-CoV-2 [18] = details: cited from earlier work

N[C@@H]1C[C@H]1c1ccccc1 (racemic) [tranylcypromine]
ACE2 lysine 31 (ACE2me2 peptide) demethylation (human recombinant LSD1 [1]): significantly decreased ACE2 lysine 31 demethylation

O=C(O)c1ccc(CN2CCC(CN[C@@H]3C[C@H]3c3ccccc3)CC2)cc1 [GSK, GSK2879552]
association between ACE2 and pan-methylation lysine antibody (PLA) [2]: increased the association between ACE2 and pan-methylation lysine antibody in infected cells
cell proliferation (Caco-2 cells [3]): neither altered cell proliferation
SARS-CoV-2 spike protein expression [4]: decreased SARS-CoV-2 spike protein expression
co-localization of ACE2 and SARS-CoV-2 spike protein [4]: significantly reduced the co-localization of ACE2 and SARS-CoV-2 spike protein
IMPα3 nuclear expression [5]: no effect on IMPα3 nuclear expression
co-localization of ACE2 and IMPα3 (PCC) [5]: minimal effect
ACE2/spike interaction at cell surface (PLA) [6]: significantly decreased interaction
ACE2 lysine 31 (ACE2me2 peptide) demethylation (human recombinant LSD1 [1]): further decreases were observed
LSD1, ACE2, and TMPRSS2 transcript [7]: remained unaltered
RIG1, MDA5, and ISG15 mRNA [7]: remained unaltered
viral RNA levels in culture supernatants (SARS-CoV-2 [8]): negligibly reduced viral RNA levels in culture supernatants
cell viability (Caco-2 cells [9]; uninfected Caco-2, up to 72 h, n=3 (Fig. S2d)): > 90%
inhibition of LSD1 catalytic activity (compared with phenelzine) (LSD1): significantly more potent inhibitor of LSD1 catalytic activity than phenelzine
spike protein expression at the cell surface [10]: to a greater extent GSK treatment, reduced spike protein expression at the cell surface of infected cells
enriched Reactome pathways vs control [11]: downregulated genes enriched in the IFN pathway
number of differentially expressed genes vs control [11]: 73 DEGs
inhibition of viral RNA in infected cells (comparison) (SARS-CoV-2 [12]): greatest inhibition of viral RNA in infected cells
viral load, % virus-aligned reads over total reads (SARS-CoV-2 [12]): 1%

C/C(=N\NC(=O)c1cccc(S(=O)(=O)N2CCOCC2)c1)c1cc(Cl)ccc1O [SP2509]
ACE2 lysine 31 (ACE2me2 peptide) demethylation (human recombinant LSD1 [1]; LSD1 incubated with inhibitor 30 min at room temperature, LSD1 fluorimetric kit, 40 s intervals, one-way ANOVA P < 0.0001 (Fig. 2a)): showed the highest inhibitory potency of all the LSD1 inhibitors in vitro

CN(C)C(=O)COC(=O)Cc1ccc(OC(=O)c2ccc(NC(=N)N)cc2)cc1 [camostat mesylate]
SARS-CoV-2-S-driven entry [13]: partially blocked SARS-CoV-2-S-driven entry into Caco-2 cells

CCN(CCO)CCCC(C)Nc1ccnc2cc(Cl)ccc12 (stereo not shown) [hydroxychloroquine]
clinical outcome in COVID-19 (COVID-19): lack of effect or even increased harm

NNCCc1ccccc1 [phenelzine]
cell proliferation (Caco-2 cells [3]): neither altered cell proliferation
SARS-CoV-2 spike protein expression [4]: decreased SARS-CoV-2 spike protein expression
co-localization of ACE2 and SARS-CoV-2 spike protein [4]: significantly reduced the co-localization of ACE2 and SARS-CoV-2 spike protein
IMPα3 nuclear expression [5]: no effect on IMPα3 nuclear expression
co-localization of ACE2 and IMPα3 (PCC) [5]: minimal effect
T cell responses [14]: epigenetically restore T cell responses in human breast cancer
IFNβ and OASL expression [7]: further increased
LSD1, ACE2, and TMPRSS2 transcript [7]: remained unaltered
RIG1, MDA5, and ISG15 mRNA [7]: remained unaltered
viral RNA levels in culture supernatants (SARS-CoV-2 [8]): negligibly reduced viral RNA levels in culture supernatants
cell viability (Caco-2 cells [9]): > 90%
disruption of nuclear LSD1/CoREST complex [15]: can disrupt the nuclear LSD1/CoREST complex
spike protein expression at the cell surface [10]: reduced spike protein expression at the cell surface of infected cells
DUSP1, DUSP6, DUPS8 expression [11]: highly upregulated
IRF7 gene expression [11]: upregulation of IRF7 gene expression
enriched Reactome pathways vs control [11]: translation and MAPK pathways were enriched; also recorded: post-transcriptional protein phosphorylation and amino acid synthesis and interconversion (transamination) processes were significantly enriched; also recorded: regulates MAPK signaling-related pathways
number of differentially expressed genes vs control [11]: 1059 DEGs

QAKTFLD[Lys(Me2)]FNHEAED [ACE2me2]
Demethylation of peptide by LSD1 (substrate) (human recombinant LSD1 [16]; ACE2me2 peptide, lysine 31, fluorescence): efficiently de-methylated

TGIRDRKKKNKARS-(FAM5) [FAM5-tagged NACE2i]
peptide stability (Caco-2 cells [17]): stable over time
nuclear ACE2 expression over time (ACE2, Caco-2 cells): significantly inhibited nuclear ACE2 expression after 8 h and up to 96 h

TGIRDRKK[Lys(Me2)]NKARS [PEP3]
Demethylation of NLS peptides by LSD1 (rank order) (human recombinant LSD1 [16]): followed by PEP3, PEP2, and PEP1

TGIRDRK[Lys(Me2)]KNKARS [PEP2]
Demethylation of NLS peptides by LSD1 (rank order) (human recombinant LSD1 [16]): followed by PEP3, PEP2, and PEP1

TGIRDR[Lys(Me2)]KKNKARS [PEP1]
Demethylation of NLS peptides by LSD1 (rank order) (human recombinant LSD1 [16]): followed by PEP3, PEP2, and PEP1

TGIRDR[Lys(Me2)]K[Lys(Me2)]NKARS [PEP4]
Demethylation of NLS peptides by LSD1 (rank order) (human recombinant LSD1 [16]): greatest demethylation

ivermectin
SARS-CoV-2 replication (SARS-CoV-2 [18]): inhibits SARS-CoV-2 replication

tocilizumab
clinical outcome in COVID-19 (COVID-19): mixed results in clinical studies

B1: sarilumab (antibody, chains of the INN, looked up, V domains shown)
VH: EVQLVESGGGLVQPGRSLRLSCAASRFTFDDYAMHWVRQAPGKGLEWVSGISWNSGRIGYADSVKGRFTISRDNAENSLFLQMNGLRAEDTALYYCAKGRDSFDIWGQGTMVTVSS
VL: DIQMTQSPSSVSASVGDRVTITCRASQGISSWLAWYQQKPGKAPKLLIYGASSLESGVPSRFSGSGSGTDFTLTISSLQPEDFASYYCQQANSFPYTFGQGTKLEIK
clinical outcome in COVID-19 (COVID-19): mixed results in clinical studies
